Consider 87 compounds from a melting point compilation (Tetko et al.; mined from patent text by program, amines drawn as free bases though some values may be those of a salt).

In general, melting point refers to the temperature of the solid-liquid transition. Regarding `Cc1ccsc1C(=O)c1sc(Nc2ccc(-n3ccnc3)cc2)nc1N`, the melting point was over 300 °C.

Regarding `CCCCCCC(C)(C)c1cc(O)c(C2=C(CCO)CCC(C)C2)c(O)c1` (configuration not stated), the melting point lay within 83 to 86 °C.

Take `CCC(C)(C)C(=O)Oc1cccc2ccc(OCCOc3ccc(C(=O)C(=O)OC)cc3)cc12`: the melting point lay within 119 to 120 °C.

`CC(C)Cc1ccc2c([N+](=O)[O-])c(O)c(O)cc2c1` returned a melting point of 105 to 108 °C.

The compound `N#Cc1cc(-c2ccccc2)[nH]c1Sc1ccc(N)cc1` gave a melting point of 146 to 147 °C.

For the compound `COc1nc2sc(S(=O)(=O)Cc3ccccc3)nn2c(=O)c1[N+](=O)[O-]`, the melting point was in the range of 216 to 218 °C.

On to `N#Cc1ccc(Oc2ccc(CC(=O)OCc3ccccc3)cc2)nc1`, for which the melting point was in the range of 96 to 97 °C.

Consider `COC(=O)CC(Nc1ccccc1OC)c1ccc2ccccc2n1` (configuration not stated), for which the melting point lay within 119 to 121 °C.

For the compound `O=C(NC1CC1)c1nccnc1Oc1cccc(C(F)(F)F)c1`, the melting point fell in the range of 74 to 77 °C.

On to `CCCNC(=O)Nc1ccc(-c2cc3[nH]c(=O)[nH]c3nc2C)cc1`, for which the melting point was over 300 °C.

For the compound `O=C(NCC1CCCCC1)NCC1CCCCC1`, the melting point was in the range of 150 to 152 °C.

Turning to `Cc1[nH]c(/C=C2\C(=O)Nc3ccc(F)cc32)c(C)c1C(=O)NCCCCCC(=O)NO`, the melting point turned out to be 210 °C.

For the compound `Cc1noc2cc3c(cc12)C1(CO3)C(=O)N(Cc2ncccc2F)c2ccccc21` (configuration not stated), the melting point was 167 to 169 °C.

With `O=C1C=C(NC(=O)C(=O)c2cn(Cc3ccc(Cl)cc3)c3cc(Cl)ccc23)CO1`, the melting point fell in the range of 255 to 257 °C.

`CN(O)C(=O)c1ccccc1Nc1c(Cl)cccc1Cl` yielded a melting point of 137 to 140 °C.

`CCC(Oc1ccc(C(C)(C)CC)cc1C(C)(C)CC)C(=O)Nc1cccc(C(=O)NC2=NN(c3c(Cl)cc(Cl)cc3Cl)C(=O)C2N2CCCCC2)c1` (configuration not stated) had a melting point of 186 to 190 °C.

`O=C(O)CC(C(=O)NC(CO)Cc1ccccc1)C1(c2ccc(-c3ccccc3)cc2)C=CNC1` (configuration not stated) showed a melting point of 151 to 154 °C.

Take `CCCC(=O)c1cnc2c(C)cccc2c1Nc1c(C)cccc1C`: the melting point lay within 100 to 101 °C.

`CC1CC=CCN1Cc1ccc(O)cc1` (configuration not stated) came in with a melting point of 109 to 112 °C.

`O=C1N(Cc2nnc(-c3ccc(Cl)cc3)o2)c2ccccc2C12COc1cc3c(cc12)OCO3` (configuration not stated) gave a melting point of 161 to 162 °C.

`Clc1ccc(Cn2c(-c3ccc4c(c3)OCO4)nc3ccccc32)s1` yielded a melting point of 130 to 131 °C.

`CC(C)(Cc1nc2c(N)nc3ccccc3c2s1)OC(N)=O` registered a melting point of 222 to 223 °C.

In the case of `O=C(O)Cc1ccc(NC(=O)C(COc2ccccc2)NS(=O)(=O)c2ccc(I)cc2)cc1` (racemic), the melting point fell in the range of 224 to 225 °C.

`CC(=O)C1=CCC2C3CCC4=CC(=O)C=CC4(C)C3(F)C(O)CC12C` (configuration not stated) showed a melting point of 327 to 328 °C.

Turning to `O=c1[nH]c2ccccc2n1-c1ncnc2nn(C3CCCC3)cc12`, the melting point lay in the range of 236 to 240 °C.

`CCC(=NO)C1=CCCN(Cc2ccccc2)C1`: the melting point lay in the range of 111 to 112 °C.

`Sc1nccn1Cc1ccc(Cl)cc1` came in with a melting point of 187 to 189 °C.

Take `COc1ccc(CC(=O)O)c(C(=O)O)c1`: the melting point was in the range of 175 to 177 °C.

`CC(SC(=O)c1ccccc1)C(=O)NC(Cc1ccccc1)C(=O)O` (configuration not stated) had a melting point of 173 to 175 °C.

Compound `CCCn1nc2c(N)nc3ccccc3c2c1CC(C)(C)NC(=O)c1ccc(F)cc1` showed a melting point of 168 to 169 °C.

On to `COc1ccc2c(c1)c(Cc1nc(-c3ccc(F)cc3)cs1)c(C)n2C(=O)c1ccc(Cl)cc1`, for which the melting point lay within 172 to 174 °C.

With `CCCCOc1ccc(C(=O)NCCCCCCCNC(=O)c2ccc(OCCCC)cc2)cc1`, the melting point was 151 to 152 °C.

Compound `CC(C)(OCc1cc2cc(C(F)(F)F)ccc2n1S(=O)(=O)c1ccc2c(c1)CCO2)C(=O)O` gave a melting point of 92 to 94 °C.

With `O=C(O)CSc1cc(-c2ccccc2)nc2ccccc12`, the melting point came out at 138 °C.

`O=S(=O)(c1ccc(Cl)cc1)N1CCCC1c1ccsc1` (racemic): the melting point worked out at 120 °C.

Take `C[C@@H]1CN(c2ccc(C(F)(F)F)cn2)C[C@H](C)N1CC(=O)N1CC=C(c2ccc3ccccc3n2)CC1`: the melting point fell in the range of 94 to 95 °C.

As to `O=c1[nH]c(S)ncc1O`, the melting point is over 300 °C.

The compound `CCCn1cc(-c2ccccc2)c(=O)c(-c2ccccc2)n1` yielded a melting point of 94 to 96 °C.

Regarding `COC(=O)C=Cc1c(O)cccc1C#CCCCCOC1CCCCO1` (racemic), the melting point lay within 66 to 67.5 °C.

As for `CCOC(=O)c1cnc2nn(C)cc2c1O`, the melting point is 222 to 224 °C.

Compound `CCCCOC(=O)NC(=O)C1c2ccccc2Oc2ccccc21` displayed a melting point of 180 to 183 °C.

In the case of `CCOc1cc(C(CC(=O)OC)N2C(=O)c3cccc(N)c3C2=O)ccc1OC` (configuration not stated), the melting point fell in the range of 134 to 136 °C.

Take `CC(C)(C)OC(=O)n1cnc2c(N)cccc21`: the melting point was found to be 117 °C.

The compound `CC(NC(=O)n1c(=O)nc(N(C)C)n1C)c1ccccc1` (configuration not stated) registered a melting point of 103 °C.

The compound `CC(C)(C)OC(=O)N[C@H]1CC[C@@H](OS(C)(=O)=O)C1` displayed a melting point of 88 to 89 °C.

`Cc1ccc(N(Cc2cccnc2)S(C)(=O)=O)cc1`: the melting point was 143 to 146 °C.

The compound `COc1cc2nc(N3CCN(C(=O)CC(C)O)CC3)nc(N)c2cc1OC` (configuration not stated) displayed a melting point of 220 to 222 °C.

For the compound `CCOC(=O)c1noc(C(Cc2ccccc2)NC(=O)OC(C)(C)C)n1` (configuration not stated), the melting point lay within 72 to 76 °C.

In the case of `CC(C)(C)c1ccc(C2C=C(c3ccccc3)NN2c2ccccc2)cc1` (configuration not stated), the melting point was in the range of 150 to 153 °C.

`CC(/C=C1/C(=O)N(c2ccccc2)C1c1ccccc1)=NOCCCN1CCCCC1` (configuration not stated) yielded a melting point of 120 to 122 °C.

On to `Cn1c(-c2ccc(OC3CCN(C4CCC4)CC3)cc2)nc2ncccc2c1=O`, for which the melting point is 146 to 150 °C.

In the case of `N#Cc1ccc(N(Cc2ccccc2)n2cnnc2)cc1-c1ccc(OS(N)(=O)=O)cc1`, the melting point is 157 to 160 °C.

As for `C[C@@H]1OCCN(c2cc(N3CCOCC3)nc(-n3c(CO)nc4ccccc43)n2)[C@@H]1C` (relative stereo), the melting point is 125 to 128 °C.

For the compound `CNc1cc(F)ccc1-c1c(C#N)n[nH]c1-c1ccc(S(C)(=O)=O)cc1`, the melting point lay within 192 to 193 °C.

Regarding `O=C(NCCc1nc(-c2ccncn2)cc(=O)[nH]1)OCc1ccccc1`, the melting point fell in the range of 252 to 254 °C.

In the case of `CC(=O)c1ccc(NC(=O)NN2CC=CCC2)cc1`, the melting point is 142 to 143 °C.

With `O=C(O)Cc1ccc(OCCNC(=O)C2Cc3ccccc3N2S(=O)(=O)c2ccc(-c3cc(F)ccc3Cl)cc2)cc1` (configuration not stated), the melting point was in the range of 78 to 84 °C.

The compound `CC(=O)N(C(=O)N(C)C)c1nnc(C(F)(F)F)s1` returned a melting point of 61 to 63 °C.

The compound `O=C(Cc1cccc2ccccc12)N1CCC(c2nccc3occc23)CC1` displayed a melting point of 50 °C.

As to `CNCCc1c[nH]c2ccc(Cn3cncn3)cc12`, the melting point was 139 to 141 °C.

Consider `O=c1c2c(Cl)cccc2nc2sc(Br)cn12`, for which the melting point lay within 174 to 178 °C.

As for `O=C(c1ccc(F)cc1)C1CCN(CCO)CC1`, the melting point lay in the range of 45 to 47 °C.

`CCNC(=O)c1c([Si](C)(C)C)ccc(C(F)F)c1Cl` showed a melting point of 120 to 121 °C.

For the compound `Cc1nc(Nc2nc3cccc(C)c3[nH]2)nc(O)c1CC(=O)O`, the melting point was over 300 °C.

Regarding `O=C1c2ccccc2C(=O)N1Cc1cnc(Cl)s1`, the melting point lay in the range of 108 to 109 °C.

`Fc1ccc(OC(=S)Nc2ccc(-c3ncn(-c4ccc(OC(F)(F)F)cc4)n3)cc2)cc1` came in with a melting point of 164 to 169 °C.

`CCOC(=O)[C@@H]1C[C@H](C(=O)O)Nc2cc(Cl)cc(Cl)c21` (relative stereo) registered a melting point of 160 to 162 °C.

In turn, `O=C(c1ccc(F)cc1)c1cc(F)ccc1OCCCCl` gave a melting point of 60 °C.

`O=C1N=C(N2CCOCC2)SC1=Cc1ccc(OC(F)(F)F)c(-c2cc(F)c(O)c(C34CC5CC(CC(C5)C3)C4)c2)c1`: the melting point turned out to be 238 °C.

Regarding `COc1ccc2c(c1OC)C1=NCCN1C1C(c3ccccc3)CCN21` (configuration not stated), the melting point was 171 °C.

Take `COC(=O)Cc1cc(N)n(-c2ccccn2)n1`: the melting point lay in the range of 84 to 85 °C.

`CC(=O)SCCC(=O)N1CCC[C@H]1C(=O)O` gave a melting point of 89 to 90 °C.

The compound `CCOC(=O)C(Sc1ccc(O)cc1)c1ccc(Cl)cc1` (configuration not stated) yielded a melting point of 63 °C.

Take `O=C(NCc1ccc2c(c1)OCO2)c1ccccc1`: the melting point lay within 115 to 116 °C.

Turning to `C[C@]1(CN2CCN(C(=O)N3CC=C(c4ccc(Cl)cc4)CC3)CC2)Cn2cc([N+](=O)[O-])nc2O1`, the melting point lay within 161 to 162 °C.

For the compound `CCCc1c(O)c(C(C)=O)cc2c(C)cc(C(=O)OCC)nc12`, the melting point was in the range of 150 to 151 °C.

`O=C(O)CCCNC(=O)CC1=C(n2nc(-c3c(-c4ccccc4)nn4ccccc34)ccc2=O)CCCC1` had a melting point of 92.5 to 93 °C.

Compound `COC(=O)c1ccccc1Nc1cccc(C(C)NO)c1C` (configuration not stated) registered a melting point of 114 to 116 °C.

`CCOc1cnc(C)c(S(=O)(=O)c2ccc(OCc3ccccc3)cc2)c1` came in with a melting point of 133 to 134 °C.

The compound `CCCOc1ccccc1-c1nc(OCC)cc(=O)[nH]1` registered a melting point of 95.5 to 97 °C.

`CCCCc1nc2c(N)nc3cccnc3c2n1CCNC(=O)c1cc(C(C)(C)C)c(O)c(C(C)(C)C)c1` had a melting point of 248 to 250 °C.

In turn, `COc1ccc(CCN2CCC(C(=O)O)(S(=O)(=O)c3ccc(OC)cc3)CC2)cc1` showed a melting point of 205 °C.

Regarding `CNc1nc(C(F)(F)F)cc(=O)n1-c1c(Cl)cc(C(F)(F)F)cc1Cl`, the melting point was in the range of 211 to 214 °C.

`CC(C)(C)OC(=O)C[C@H](NC(=O)CNC(=O)c1csc(NC(=O)NCc2ccccc2)n1)C(=O)NCc1cccnc1`: the melting point worked out at 185 °C.

Consider `Cn1nc2ccc3nc(O)c(O)nc3c2n1`, for which the melting point is over 300 °C.

On to `COc1ccc(CNc2nc(N3CCCC3CO)nnc2C(=O)NCc2ncccn2)cc1Cl` (configuration not stated), for which the melting point fell in the range of 170 to 173 °C.

For `O=C(O)CC(CC(=O)O)c1cc(C(=O)O)n(CC(=O)O)c1`, the melting point is 130 °C.
